Assay results taken from article PMC5458211, “Mitochondrial VDAC1-based peptides: Attacking oncogenic properties in glioblastoma” (Oncotarget, 2017).
Non-standard residues stand in square brackets, D forms with d. Residues, ends and D or L forms follow the SMILES beside them.

Experiments:
HK-I-GFP = HK-I-GFP detachment from mitochondria by confocal microscopy, U-87MG; type: cell-based, human; conditions: 7 μM, 3 h, serum-free medium
Method: (§1) Figure 2 Mode of action of VDAC1-based peptides – interacting with- and detaching HK, releasing Cyto c, decreasing ATP level and inducing apoptosis A. Purified HK-II was fluorescently labeled using the NanoTemper protein-labeling Kit BLUE. […] Then, 3-5 μl of the samples were loaded into MST-grade glass capillaries and thermophoresis was measured using a Monolith-NT115 apparatus, as described in Materials and methods available online in Supplemental information. […] The final DMSO concentration in control and peptide-treated cells was 0.07%. Fixed cells were visualized using confocal microscopy (Olympus 1×81), as described in Materials and Methods available online in Supplemental information. […] The levels of HK in the supernatants were quantified and are presented as relative units. D. D-ΔN-Ter-Antp induces mitochondrial inner membrane depolarization analyzed as described in Materials and Methods available online in Supplemental information. […] Cells then were analyzed for Δψ using TMRM. Δψ is presented as percentage of control. […] Release of Cyto c from the mitochondria was analyzed by immunostaining using anti-Cyto c antibodies and confocal microscopy (Olympus 1×81) as described in Materials and Methods available online in Supplemental information. […] Quantification of apoptosis in control and peptide's treated cells are presented bellow the images. […]

Neuro-2a cells = assay: Cell death by PI staining and flow cytometry, Neuro-2a; type: cell-based; conditions: mouse neuroblastoma, 6 h at 37°C, serum-free medium, Suppl Fig 1
Method: (§2) Cells (6×10^5 /ml) were incubated in 500 μl serum-free medium with the peptide of interest for 6 h at 37°C in the presence of 5% CO2. The cells were then trypsinized, centrifuged (1500xg, 5 min), washed with PBS and analyzed for cell death using propidium iodide (PI) staining and flow cytometer (Beckton-Dickinson, San Jose, CA) and BD CellQuest Pro software. Apoptotic cell death was also analyzed by PI and annexin V-FITC staining, and by acridine orange and ethidium bromide staining and light microscopy (Olympus LX2-KSP). […]
overnight at 4°C with primary antibodies (sources and After rinsing in water, the sections were counter-stained dilutions used detailed in Table S2) and washed with hematoxylin, and mounted with mounting medium.
PBST. For IHC, endogenous peroxidase activity was Finally, the sections were observed under a microscope blocked by incubating the sections in 3% H2O2 for 15 min. (Leica DM2500) and images were collected at 20× After washing thoroughly with PBST, the sections were magnification with the same light intensity and exposure incubated with the appropriate secondary antibodies for 2 time. Non-specific control experiments were carried out h. […]
Ter-Antp (●) peptide in serum-free appropriate growth medium for 6 h at 37°C. Cells were harvested, washed twice with PBS and cell death was analyzed by propidium iodide (PI) staining and ﬂow cytometry. […]

GL-261MG cells = assay: Cell death by PI staining and flow cytometry, GL-261MG; type: cell-based; conditions: mouse glioblastoma, 6 h at 37°C, serum-free medium, Suppl Fig 1
Method: as §2
(§3) was subsequently visualized by incubating with DAB. […]
(§4) Supplementary Figure 1: VDAC1-based peptides induce dramatic cell death of several brain tumor-derived cell […]
(§5) Ter-Antp (●) peptide in serum-free appropriate growth medium for 6 h at 37°C. Cells were harvested, washed twice with PBS and cell death was analyzed by propidium iodide (PI) staining and ﬂow cytometry. D. Summary of IC50 values (μM) for the peptides with the indicated […]
(§6) (also on this page, place not known: www.impactjournals.com/oncotarget/ Oncotarget, Materials 2017 V , Supplementary) […]

SH-SY5Y cells = assay: Cell death by PI staining and flow cytometry, SH-SY5Y; type: cell-based; conditions: human neuroblastoma, 6 h at 37°C, serum-free medium, Suppl Fig 1
Method: as §2, §3, §4, §5, §6

U-87MG cells = assay: Apoptosis by acridine orange/ethidium bromide staining, U-87MG; type: cell-based, human; conditions: 3 h, mean ± SE (n=3), DMSO control 9.8 ± 5.3
Method: Figure 2 Mode of action of VDAC1-based peptides – interacting with- and detaching HK, releasing Cyto c, decreasing ATP level and inducing apoptosis A. Purified HK-II was fluorescently labeled using the NanoTemper protein-labeling Kit BLUE. […] Then, 3-5 μl of the samples were loaded into MST-grade glass capillaries and thermophoresis was measured using a Monolith-NT115 apparatus, as described in Materials and methods available online in Supplemental information. […] The final DMSO concentration in control and peptide-treated cells was 0.07%. Fixed cells were visualized using confocal microscopy (Olympus 1×81), as described in Materials and Methods available online in Supplemental information. Arrows indicate cells with diffusion of HK-I-GFP. C. […] Anti-GAPDH antibodies were used to verify the cytosolic extracts. The levels of HK in the supernatants were quantified and are presented as relative units. D. D-ΔN-Ter-Antp induces mitochondrial inner membrane depolarization analyzed as described in Materials and Methods available online in Supplemental information. U-87MG cells were incubated for 3 h with the indicated concentrations of D-ΔN-Ter-Antp or with FCCP (1 h, 25 μM). Cells then were analyzed for Δψ using TMRM. Δψ is presented as percentage of control. Results = mean ± SE (n=3) (*** p≤0.001, ****p ≤0.0001). […] Cellular ATP levels are presented as percentage of control. Results = mean ± SE (n=2 or 3) (* p≤0.05, ** p≤0.01). […] Release of Cyto c from the mitochondria was analyzed by immunostaining using anti-Cyto c antibodies and confocal microscopy (Olympus 1×81) as described in Materials and Methods available online in Supplemental information. Arrows indicate cells showing diffusion of Cyto c. […] Arrows and arrowheads indicate cells with membrane blebbing (early apoptotic state) and late apoptotic states, respectively. Quantification of apoptosis in control and peptide's treated cells are presented bellow the images. Results = mean ± SE (n=3) (** p≤0.01, *** p≤0.001, **** p≤0.0001).
Cells (6×10^5 /ml) were incubated in 500 μl serum-free medium with the peptide of interest for 6 h at 37°C in the presence of 5% CO2. The cells were then trypsinized, centrifuged (1500xg, 5 min), washed with PBS and analyzed for cell death using propidium iodide (PI) staining and flow cytometer (Beckton-Dickinson, San Jose, CA) and BD CellQuest Pro software. Apoptotic cell death was also analyzed by PI and annexin V-FITC staining, and by acridine orange and ethidium bromide staining and light microscopy (Olympus LX2-KSP).

[1] = test system: Cyto c release in U-87MG cells; assay: Cytochrome c release by immunofluorescence; type: cell-based, human; conditions: 10 μM, 3 h, serum-free medium
Method: as §1

CC[C@@H](C)[C@@H](NC(=O)[C@@H](CCCCN)NC(=O)[C@H](NC(=O)[C@@H](CCC(N)=O)NC(=O)[C@@H](CCCNC(=N)N)NC(=O)[C@@H](CC(C)C)NC(=O)CNC(=O)[C@@H](Cc1ccccc1)NC(=O)CNC(=O)[C@@H](Cc1ccc(O)cc1)NC(=O)CNC(=O)[C@@H](CCCCN)NC(=O)[C@H](NC(=O)[C@@H](Cc1ccccc1)NC(=O)[C@H](NC(=O)[C@@H](CC(=O)O)NC(=O)[C@H](N)CCCNC(=N)N)C(C)C)[C@H](C)O)[C@H](C)CC)C(=O)N[C@H](Cc1c[nH]c2ccccc12)C(=O)N[C@H](Cc1ccccc1)C(=O)N[C@H](CCC(N)=O)C(=O)N[C@H](CC(N)=O)C(=O)N[C@H](CCCNC(=N)N)C(=O)N[C@H](CCCNC(=N)N)C(=O)N[C@H](CCSC)C(=O)N[C@H](CCCCN)C(=O)N[C@H](Cc1c[nH]c2ccccc12)C(=O)N[C@H](CCCCN)C(=O)N[C@H](CCCCN)C(=O)O [D-ΔN-Ter-Antp] (H-[dR][dD][dV][dF][dT][dK]G[dY]G[dF]G[dL][dR][dQ][dI][dK][dI][dW][dF][dQ][dN][dR][dR][dM][dK][dW][dK][dK]-OH; N-terminus and C-terminus assumed)
HK-I-GFP detachment (fluorescence distribution) (HK-I-GFP): became diffuse
cell death, Neuro-2a (Neuro-2a cells): effectively induce cell death
cell death, GL-261MG (GL-261MG cells): effectively induce cell death
cell death, SH-SY5Y (SH-SY5Y cells): effectively induce cell death
Apoptosis, % (U-87MG cells; 3 μM): 45.4 ± 2.6%
Apoptosis, % (U-87MG cells; 5 μM): 63.4 ± 3.8%
Cyto c release [1]: partial Cyto c release

CC[C@H](C)[C@H](NC(=O)[C@H](C)NC(=O)[C@@H](N)Cc1c[nH]cn1)C(=O)N[C@@H](Cc1ccc(O)cc1)C(=O)N1CCC[C@H]1C(=O)N[C@@H](CCCNC(=N)N)C(=O)N[C@@H](Cc1c[nH]cn1)C(=O)N[C@@H](CO)C(=O)N[C@@H](Cc1c[nH]c2ccccc12)C(=O)N[C@H](C(=O)N[C@@H](Cc1c[nH]c2ccccc12)C(=O)N[C@@H](CCC(=O)O)C(=O)N[C@H](CCCCN)C(=O)N[C@H](CCCCN)C(=O)N[C@H](CC(C)C)C(=O)N[C@H](CCC(=O)O)C(=O)N[C@@H](C(=O)N[C@H](C)C(=O)N[C@@H](C(=O)N[C@H](CC(N)=O)C(=O)N[C@H](CC(C)C)C(=O)N[C@H](C)C(=O)N[C@H](Cc1c[nH]c2ccccc12)C(=O)N[C@@H](C(=O)N[C@H](C)C(=O)NCC(=O)N[C@H](CC(N)=O)C(=O)N[C@H](CO)C(=O)N[C@H](CC(N)=O)C(=O)N[C@@H](CCCCN)C(=O)N[C@@H](Cc1c[nH]c2ccccc12)C(=O)N[C@H](C(=O)N[C@@H](Cc1c[nH]c2ccccc12)C(=O)N[C@@H](CCCCN)C(=O)O)[C@@H](C)O)[C@H](C)O)C(C)C)[C@H](C)O)[C@@H](C)O [Tf-D-LP4]
HK-I-GFP detachment (fluorescence distribution) (HK-I-GFP): became diffuse
cell death, Neuro-2a (Neuro-2a cells): effectively induce cell death
cell death, GL-261MG (GL-261MG cells): effectively induce cell death
cell death, SH-SY5Y (SH-SY5Y cells): effectively induce cell death
Apoptosis, % (U-87MG cells; 3 μM): 55.8 ± 1.0%
Apoptosis, % (U-87MG cells; 5 μM): 73.9 ± 5.7%
Cyto c release [1]: partial Cyto c release
